Source: patent US12448369B2 (Edgewise Therapeutics, Inc., priority 2023, dated 2025)

How the values were obtained:
[1] = molecular target: T1, Porcine ventricle myofibrils (ventricular myosin ATPase) (Sus scrofa, UniProt P79293); assay: Myofibril ATPase assay, porcine ventricle myofibrils; format: biochemical, porcine (Yucatan minipigs); conditions: porcine ventricle myofibrils
T1 construct: Myofibrils from porcine cardiac muscle was isolated from the left ventricle of Yucatan minipigs; tissue Exemplar Genetics; host or cells: left ventricle of Yucatan minipigs, myofibrils prepared in house
How it was run: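 Left-ventricle myofibrils from Yucatan minipigs were tested with a PK/LDH-coupled system, following NADH loss at 340 nm every 1.5-2 min for 75 min. Slopes were normalized to vehicle wells and fit to a 4-parameter logistic model; values are Y75 (25% ATPase reduction) or Y125 concentrations.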

[2] = test system: Rabbit Psoas myofibrils (skeletal myosin ATPase); assay: Myofibril ATPase assay, rabbit psoas (skeletal) myofibrils; format: biochemical; conditions: rabbit psoas myofibrils
How it was run: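 ATPase activity of Triton-washed myofibrils was measured by PK/LDH coupling, following NADH loss at 340 nm every 1.5–2 min for 75 min in PIPES/Ca/EGTA buffer at pH 7.0. Slopes, normalized to vehicle (100%), were fitted to a 4-parameter logistic model. Values are Y75 (25% inhibition) or Y125 (activators).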

[3] = test system: Porcine atria myofibrils (atrial myosin ATPase); assay: Myofibril ATPase assay, porcine atria myofibrils; format: biochemical; conditions: porcine atria myofibrils
How it was run: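 Porcine atrial myofibrils were tested in a PK/LDH-coupled system where ADP from myosin ATPase drives NADH oxidation. Absorbance at 340 nm was read every 1.5-2 min for 75 min and slopes were normalized to vehicle wells. A 4-parameter logistic fit gave Y75 (25% inhibition) or Y125 (activation) concentrations.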

[4] = Y75 value (75% activity relative to no compound)

T1 sequence (P79293 whole entry): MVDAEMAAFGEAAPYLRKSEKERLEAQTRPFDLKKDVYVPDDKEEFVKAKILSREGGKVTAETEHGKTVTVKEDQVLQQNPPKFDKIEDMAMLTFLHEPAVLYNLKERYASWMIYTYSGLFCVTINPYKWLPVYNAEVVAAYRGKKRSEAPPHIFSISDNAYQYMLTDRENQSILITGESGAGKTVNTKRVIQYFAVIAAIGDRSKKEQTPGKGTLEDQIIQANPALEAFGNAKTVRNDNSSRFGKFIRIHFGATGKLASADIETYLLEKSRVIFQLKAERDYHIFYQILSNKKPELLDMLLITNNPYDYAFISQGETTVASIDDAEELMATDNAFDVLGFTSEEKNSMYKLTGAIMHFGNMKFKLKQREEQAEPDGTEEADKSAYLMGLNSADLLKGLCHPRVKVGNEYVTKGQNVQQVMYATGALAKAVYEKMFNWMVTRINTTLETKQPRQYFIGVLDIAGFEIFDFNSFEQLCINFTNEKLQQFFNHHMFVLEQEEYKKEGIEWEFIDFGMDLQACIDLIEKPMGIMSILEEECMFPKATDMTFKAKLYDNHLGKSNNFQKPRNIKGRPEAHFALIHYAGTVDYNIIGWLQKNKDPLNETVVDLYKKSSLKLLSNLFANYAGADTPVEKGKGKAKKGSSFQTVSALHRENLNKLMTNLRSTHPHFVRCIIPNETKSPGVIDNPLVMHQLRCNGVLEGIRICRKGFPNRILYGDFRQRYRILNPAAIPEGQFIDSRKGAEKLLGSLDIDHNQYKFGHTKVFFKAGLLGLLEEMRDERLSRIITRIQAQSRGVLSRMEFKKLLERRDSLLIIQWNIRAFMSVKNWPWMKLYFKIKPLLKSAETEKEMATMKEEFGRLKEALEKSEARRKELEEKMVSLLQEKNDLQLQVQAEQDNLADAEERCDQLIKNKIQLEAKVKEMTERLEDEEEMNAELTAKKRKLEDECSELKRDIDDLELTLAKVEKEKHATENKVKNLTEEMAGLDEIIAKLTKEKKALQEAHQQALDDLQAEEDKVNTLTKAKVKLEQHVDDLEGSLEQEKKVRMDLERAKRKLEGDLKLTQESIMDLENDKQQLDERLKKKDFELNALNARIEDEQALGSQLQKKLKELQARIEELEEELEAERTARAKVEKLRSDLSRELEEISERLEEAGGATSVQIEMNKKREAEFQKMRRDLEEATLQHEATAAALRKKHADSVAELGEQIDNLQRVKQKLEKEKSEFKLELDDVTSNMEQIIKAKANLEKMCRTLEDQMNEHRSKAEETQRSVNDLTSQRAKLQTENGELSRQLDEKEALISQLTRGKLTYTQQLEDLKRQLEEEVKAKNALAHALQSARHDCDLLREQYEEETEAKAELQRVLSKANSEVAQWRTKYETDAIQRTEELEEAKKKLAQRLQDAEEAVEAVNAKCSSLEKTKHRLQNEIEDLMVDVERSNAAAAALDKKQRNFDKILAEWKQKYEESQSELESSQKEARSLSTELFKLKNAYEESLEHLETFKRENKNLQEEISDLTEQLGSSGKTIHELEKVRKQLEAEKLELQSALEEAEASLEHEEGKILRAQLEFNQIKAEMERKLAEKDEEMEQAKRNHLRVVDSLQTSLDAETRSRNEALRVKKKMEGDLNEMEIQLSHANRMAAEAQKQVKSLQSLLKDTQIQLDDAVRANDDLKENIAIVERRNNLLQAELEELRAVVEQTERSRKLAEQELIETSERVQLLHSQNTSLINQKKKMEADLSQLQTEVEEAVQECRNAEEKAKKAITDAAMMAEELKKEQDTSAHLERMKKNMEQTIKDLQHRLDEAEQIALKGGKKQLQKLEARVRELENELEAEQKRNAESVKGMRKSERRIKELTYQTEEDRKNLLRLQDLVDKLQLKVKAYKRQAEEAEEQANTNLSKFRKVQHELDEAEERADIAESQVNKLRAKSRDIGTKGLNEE

Ventricular EC25 ([1]; Y75 value (no ‡ mark)) [µM] | Skeletal EC25 ([2]; Y75 value (no ‡ mark)) [µM] | Atrial EC25 ([3]; Y75 value (no ‡ mark)) [µM] | Ventricular EC25 ([1]; Y75 value) [µM] | Skeletal EC25 ([2]; Y75 value) [µM] | Atrial EC25 [3, 4] [µM] | Compound
0.15 | 0.47 | 1.90 |  |  |  | Cc1c(F)ccc2[nH]c(=O)c(CC(=O)N[C@H](C)c3ncc(C#N)cc3F)c(C#N)c12 [compound 1149]
 |  |  | 62.33 | 5.80 | 4.94 | Cc1nccc2[nH]c(=O)c(C(F)(F)C(=O)N[C@H](C)c3ncc(C#N)cc3F)c(C)c12 (single isomer, unassigned) [compound 3513]
100.00 | 1.04 | 1.05 |  |  |  | Cc1c(C(F)(F)C(=O)N[C@H](C)c2ccc(F)cc2F)c(=O)[nH]c2ccc(F)cc12 [compound 4815]
 |  |  | 4.50 | 0.25 | 2.38 | Cc1nccc2[nH]c(=O)c(C(F)(F)C(=O)N[C@H](C)c3cnc(C#N)cn3)c(C)c12 (single isomer, unassigned) [compound 3520]
 |  |  | 2.17 | 100.00 | 0.14 | COc1nccc2[nH]c(=O)c(CC(=O)N[C@H](C)c3ncc(C#N)cc3F)c(C(F)(F)F)c12 (single isomer, unassigned) [compound 3009]
100.00 | 12.10 | 31.81 |  |  |  | Cc1nc(C#N)ncc1[C@@H](C)NC(=O)Cc1cc2cc(F)c(F)cc2[nH]c1=O [compound 1096]
 |  |  | 2.65 | 0.07 | 0.13 | C[C@H](NC(=O)Cc1cc2nc(F)ccc2[nH]c1=O)c1ccc(F)cc1F [compound 392]
 |  |  | 5.73 | 100.00 | 100.00 | COc1nccc2[nH]c(=O)c(CC(=O)N[C@H](C)c3ncc(C#N)cn3)c(C(F)(F)F)c12 (single isomer, unassigned) [compound 3007]
0.55 | 0.16 | 0.11 |  |  |  | Cc1c(C2(C(=O)N[C@H](C)c3ncc(C#N)cc3F)CC2)c(=O)[nH]c2ccc(F)cc12 (single isomer, unassigned) [compound 2596]

Further lines, the compound ahead of its results:

Compound | Ventricular EC25 ([1]; Y75 value (no ‡ mark)) [µM] | Skeletal EC25 ([2]; Y75 value (no ‡ mark)) [µM] | Atrial EC25 ([3]; Y75 value (no ‡ mark)) [µM] | Ventricular EC25 ([1]; Y75 value) [µM] | Skeletal EC25 ([2]; Y75 value) [µM] | Atrial EC25 [3, 4] [µM]
Cc1c(CC(=O)N[C@H](CO)c2ncc(F)cc2F)c(=O)[nH]c2ccnc(C(F)(F)F)c12 [compound 263] |  |  |  | 100.00 | 100.00 | 100.00
C[C@H](NC(=O)[C@@H](C)c1cc2c(F)c(F)ccc2[nH]c1=O)c1ccc(F)cc1F (single isomer, unassigned) [compound 110] | 42.60 | 100.00 | 0.52 |  |  | 
CNc1nccc2[nH]c(=O)c(CC(=O)N[C@@H](C)c3ccc(F)cc3F)c(C)c12 [compound 354] |  |  |  | 49.13 | 0.19 | 2.11
Cc1c(CC(=O)N[C@H](C)c2ccc(F)cc2F)c(=O)[nH]c2ccnc(C#N)c12 [compound 269] |  |  |  | 34.76 | 2.47 | 100.00
C[C@H](NC(=O)[C@H](C)c1c(C(F)(F)F)c2c(F)cccc2[nH]c1=O)c1ccc(F)cc1F (single isomer, unassigned) [compound 98] | 4.12 | 0.06 | 0.53 |  |  | 
C[C@H](NC(=O)[C@H](C)c1cc2nc(C#N)ccc2[nH]c1=O)c1ccc(F)cc1F (single isomer, unassigned) [compound 257] |  |  |  | 100.00 | 100.00 | 100.00
Cc1cccc([C@@H](C)NC(=O)Cc2c(C)c3c(C)nccc3[nH]c2=O)c1 (single isomer, unassigned) [compound 339] |  |  |  | 100.00 | 100.00 | 100.00
Cc1c(CC(=O)N[C@@H](c2ccc(F)cc2F)C(C)(C)O)c(=O)[nH]c2ccnc(C#N)c12 (single isomer, unassigned) [compound 279] |  |  |  | 100.00 | 1.29 | 78.18
Cc1c(CC(=O)N[C@@H](C)c2ncc(C#N)cc2F)c(=O)[nH]c2cccc(F)c12 [compound 52] | 0.10 | 0.02 | 0.06 |  |  | 
Cc1nccc2[nH]c(=O)c(CC(=O)N[C@@H](C)c3ccc(O)cc3)c(C)c12 (single isomer, unassigned) [compound 329] |  |  |  | 100.00 | 100.00 | 100.00
